# Test results from PubChem BioAssay AID2384 (Southern Research Specialized Biocontainment Screening …, 2010).
# Values joined by “and” are separate entries in the source; they are usually repeats but may differ in a detail not shown here. Equal entries are not always repeated.
# Test system: S. typhi GFP reporter counter-screen, fluorescence, 4 h
# Assay: S. typhi counter-screen signal inhibition – fluorescence, 4 h, counter-screen for PhoP regulon inhibitor project, dose response (AID 2384)
row,Structure (SMILES),IC50
1,Cc1cc(C)c(OCCCCNCc2ccccc2)c(Cl)c1,61.3 µM
2,O=C(O)c1cn(C2CC2)c2cc(N3CCN(S(=O)(=O)c4ccc5c(c4)OCCO5)CC3)c(F)cc2c1=O,15.9 µM
3,O=C1OCC(CO)(CO)N=C1NNc1ccc(Cl)c(Cl)c1,144 µM
4,CCOC(=O)N1CCN(CCC(=O)c2ccc(Cl)cc2)CC1,66.6 µM
5,CCCCCCCCCCCCOC(=O)C[N+](C)(C)C,19.9 µM
6,OC(CNCCc1ccccc1)COc1ccc(OCC(O)CNCCc2ccccc2)cc1 (stereo unspecified),21.3 µM
7,Nc1nc(Nc2ccccc2)nc2ccccc12,42.4 µM
8,C#CCOCCOCCOCCNc1nc(N2CCN(C(=O)CCCCCCCCCCNC(=O)[C@H]([C@@H](C)CC)n3cc(CCCCCN)nn3)CC2)nc(N2CCN(C(=O)CCCCCCCCCCNC(=O)[C@H]([C@@H](C)CC)n3cc(CCCCN=C(N)N)nn3)CC2)n1,25 µM
9,Cc1cc(C)n(/N=C/c2cc([N+](=O)[O-])ccc2O)c(=O)c1,39.5 µM
10,Clc1cccc(CN2CCc3c([nH]c4ccccc34)C2)c1Cl,136 µM
11,CN(C)CCOC(=O)c1sc2ccccc2c1Cl,125 µM
12,Cc1c(Cl)cccc1Nc1nc(NCCO)c2ccccc2n1,40.1 µM
13,C#CCOCCOCCOCCNc1nc(N2CCN(C(=O)CCCCCCCCCCNC(=O)[C@H]([C@@H](C)CC)n3cc(CCCCN=C(N)N)nn3)CC2)nc(N2CCN(C(=O)CCCCCCCCCCNC(=O)[C@H](CO)n3cc(CCCCCN)nn3)CC2)n1,35.2 µM
14,CC(C)N1CSC(=S)N(Cc2ccccc2)C1,49.4 µM
15,Nc1nonc1C(=O)N/N=C/c1cc(Br)ccc1O,14 µM
16,Cc1ccc(C(=O)Sc2cccccc2=O)cc1,6.31 µM
17,CCn1cc(C(=O)O)c(=O)c2cnc(N3CCNCC3)nc21,50.1 µM
18,CCCCCC(=O)NC(=S)NNC(=O)CC,68.8 µM
19,CCCC(=O)NC(c1ccco1)c1cc([N+](=O)[O-])c2cccnc2c1O (stereo unspecified),25.4 µM
20,COc1ccc(CNCC(O)COc2ccc(C(C)(C)c3ccccc3)cc2)cc1 (stereo unspecified),20.4 µM
21,CCN1CCN(CCCNC(=O)c2ccc(/C=C3/Sc4ccccc4N(Cc4ccccc4F)C3=O)cc2)CC1,85.4 µM
22,CCc1ccc(CNCc2ccc(OCC(O)CN(C)Cc3ccccc3)cc2)nc1 (stereo unspecified),67.6 µM
23,CN1CCN(c2c(F)cc3c(=O)c(C(=O)O)cn4c3c2OCN4C)CC1,< 0.55 µM

row,Structure (SMILES),IC50
1,CCOc1cc(CNC(C)(C)CO)cc(Br)c1OCc1ccc(Cl)cc1Cl,37.3 µM
2,Cc1ccc(C(=O)NNC(=S)NC(=O)c2ccccc2)cc1,57.8 µM
3,OCCNCc1cc(Br)ccc1OCc1ccc(Cl)cc1,34.7 µM
4,CN(C)CCCN1c2ccccc2CCc2ccc(Cl)cc21,70.5 µM
5,c1ccc2c(c1)CCc1ccccc1C2=C1CCNCC1,58.2 µM
6,CCCCCCCCCn1c2c(c(=N)c3c1CCC3)CCC2,10.6 µM
7,C#CCOCCOCCOCCNc1nc(N2CCN(C(=O)[C@H](Cc3cc4ccccc4[nH]3)n3cc([C@@H](N)CC(C)C)nn3)CC2)nc(N2CCN(C(=O)[C@H](Cc3cc4ccccc4[nH]3)n3cc([C@@H](N)CC(C)C)nn3)CC2)n1,19.1 µM
8,CCCCCCCCCCOC(=O)Cn1c(COc2ccc(OC)cc2)[n+](C)c2ccccc21,12.1 µM and 10 µM
9,O=c1cc(-c2ccc(O)cc2)oc2c(O)c(O)c(O)c(O)c12,35.6 µM
10,CCCCCCCSc1cc(OC)c(CCN(C)C)cc1OC,30.7 µM
11,Clc1ccc(-c2cc(C3CCNCC3)[nH]n2)c(Cl)c1,18.2 µM
12,CCCCC(=O)NC(=S)NNC(=O)CC,62.2 µM
13,COc1cc(C(=O)N/N=C/c2ccc(OC(=O)c3cccc(C)c3)c(OC)c2)ccc1O,108 µM
14,OC(CNCCc1ccc(C(F)(F)F)cc1)COC(c1ccccc1)c1ccccc1 (stereo unspecified),29.6 µM
15,Cc1cccc(Nc2cc(C)c3c(O)cccc3n2)c1C,34 µM
16,CCN1CCN(Cc2ccc(NC(=O)c3ccc(C)c(NC(=O)c4c[nH]c5cc(C(F)(F)F)ccc5c4=O)c3)cc2C(F)(F)F)CC1,34.9 µM
17,c1ccc2c(c1)C(=NC1CCCCC1)NC2=NC1CCCCC1,77.2 µM
18,Cc1cc(C(C)(C)CC(C)(C)C)ccc1OCCOCC[N+](C)(C)Cc1ccccc1,16.8 µM
19,O=C(NC1CCCCC1)c1ccc([N+](=O)[O-])o1,119 µM
20,Cn1ncnc2c(=O)n(C)c(=O)nc1-2,2.53 µM
21,CCCCCOc1ccc(CSC(=N)N)cc1[N+](=O)[O-],30.4 µM
22,COc1ccc(CNCCC(c2ccccc2)c2ccc3c(c2)OCO3)cc1 (stereo unspecified),73.4 µM
23,O=c1c2ccccc2nc(N/N=C/c2c(O)ccc3ccccc23)n1O,16.2 µM

row,Structure (SMILES),IC50
1,O=C(N/N=C/c1ccc([N+](=O)[O-])s1)c1ccccc1Br,77.5 µM
2,Cc1ccc(NC(=O)CSC(N)=O)cc1Cl,82.1 µM
3,Clc1ccc(CN2CCc3c([nH]c4ccccc34)C2)cc1Cl,36.2 µM
4,COc1ccc(/C=N/Nc2cc(C)nc3ccc(Br)cc23)cc1,36.4 µM
5,OC1CNCc2cc3c(cc21)OCCO3 (stereo unspecified),61.7 µM
6,CC1(CC(=O)N/N=C/c2cc([N+](=O)[O-])c(O)cc2O)OCCO1,74 µM
7,CCN1CCN(Cc2ccc(NC(=O)c3ccc(C)c(NC(=O)C(=O)c4c[nH]c5ccccc45)c3)cc2C(F)(F)F)CC1,59.3 µM
8,C[n+]1c2n(c3ccccc31)N=C(c1ccc(-c3ccccc3)cc1)CS2,26.4 µM
9,CC(C)CCC(CCNCc1ccccn1)c1ccc(Cl)cc1 (stereo unspecified),54.7 µM
10,CC[C@@H](C)[C@H](CN[C@H](CNC)C(C)C)NC[C@@H](C)c1ccc(CC(C)C)cc1,26.2 µM
11,CC1CCc2cc(F)cc3c(=O)c(C(=O)O)cn1c23 (stereo unspecified),15.6 µM
12,CCCCCSc1cc(OC)c(CCNC)cc1OC,52.2 µM
13,c1ccc(CN2CCN(c3nc(NCc4ccco4)c4ccccc4n3)CC2)cc1,64.6 µM
14,NS(=O)(=O)OCCCc1ccc(C(F)(F)F)cc1,145 µM
15,c1ccc(CN2CCC(Nc3nc(-c4cccs4)nc4ccccc34)CC2)cc1,37.2 µM
16,Cc1ccc(C(=O)NNC(=S)NC(=O)COc2ccccc2)cc1,63.9 µM
17,O=C(N/N=C/c1ccccn1)c1ccc(Br)o1,45.1 µM
18,S=C(Nc1ccc(Cl)c(Cl)c1)NC1CCN(Cc2ccccc2)CC1,37.8 µM
19,Nc1[nH]ncc1-c1ccccc1,48 µM
20,CN1CCN(C2=Cc3ccccc3Sc3cc(F)c(F)cc32)CC1,37.3 µM
21,C#CCOCCOCCOCCNc1nc(N2CCN(C(=O)CCCCCCCCCCNC(=O)Cn3cc(CCCCCN)nn3)CC2)nc(N2CCN(C(=O)CCCCCCCCCCNC(=O)[C@@H]([C@H](C)O)n3cc(C)nn3)CC2)n1,115 µM
22,COc1ccc2c(c1OC)C(=O)N(c1ccc(C)cc1)C2=O,105 µM
23,Cc1ccc(OCC(=O)N/N=C/c2ccc([N+](=O)[O-])o2)cc1,28.1 µM

row,Structure (SMILES),IC50
1,Cc1cc(OCC(O)CNC(C)c2ccccc2)ccc1C(C)C (stereo unspecified),38.3 µM
2,Cc1[nH]c2ccc(OC(F)(F)F)cc2c1CCNCc1ccc(Cl)cc1,20.5 µM
3,CN1CCN(C(c2ccc(Br)cc2)c2cc(Cl)c3cccnc3c2O)CC1 (stereo unspecified),35.4 µM
4,Cc1nn(-c2cc(N3CCNCC3)ccc2[N+](=O)[O-])c(=O)c2ccccc12,141 µM
5,c1cc2c(cc1C1CCCCC1)c1c3n2CCCNC3CCC1 (stereo unspecified),20.3 µM
6,CC(C(=O)NC1CCS(=O)(=O)C1)N1C(=O)/C(=C/c2ccc(Cl)cc2)SC1=S (stereo unspecified),18.2 µM
7,COc1ccc2[nH]c3c(C)c4ccncc4c(C)c3c2c1,21.5 µM
8,Cc1oc2c(O)c(O)ccc2c(=O)c1-c1ccccc1,100 µM
9,CC1CCN(CCCNC(=O)c2ccc3c(=O)n(Cc4ccc(Cl)cc4)c(=S)[nH]c3c2)CC1,47.8 µM
10,O=C(Nc1cccc(C2=NCCN2)c1)Nc1cccc(C2=NCCN2)c1,44.8 µM
11,CCCCCCCCCCOC(=O)C[N+](C)(C)CC1CCCCC1O (stereo unspecified),37.6 µM
12,O=C(NC(=S)NNC(=O)c1ccccc1O)c1ccco1,25.8 µM
13,CCN1CCN(C(=O)c2cc3ccc(OC)cc3[nH]2)CC1,34.1 µM
14,Cc1ccc(Nc2c3c(nc4ccccc24)CCC3)cc1,25.8 µM
15,CNC(CC(=O)c1ccc([N+](=O)[O-])cc1)C(Cl)(Cl)Cl (stereo unspecified),82.7 µM
16,CNC[C@@H](CC1CCCCC1)NC[C@H](CC(C)C)NCCc1cccc(C(F)(F)F)c1,18.8 µM
17,Nc1nc(Nc2cccc(F)c2)nc2ccccc12,22.5 µM
18,CC(C)(C)c1ccc(OCCCCCCN2CCNCC2)cc1,49.2 µM
19,Cc1cc(Br)ccc1OCCCCNCCO,30.7 µM
20,O=C(Cc1ccc(Br)cc1)c1ccc(O)cc1O,107 µM
21,Nc1nc(N)c(Cc2ccc(Cl)cc2Cl)c(N)n1,61.8 µM
22,CCOC(=O)C1=C(O)c2ccccc2C(=O)/C1=C\c1ccc(C)cc1,137 µM
23,N=c1n(CC(=O)c2ccc(Br)s2)c2ccccc2n1Cc1ccccc1,27.3 µM

row,Structure (SMILES),IC50
1,Cc1ccc2c(c1)C1CN(C)CCC1N2C(=O)COc1ccccc1F (stereo unspecified),110 µM
2,CCC(/C=C1\Sc2ccc(OC)cc2N1CCO)=C\c1sc2ccc(OC)cc2[n+]1CCO,32 µM
3,O=C(NCCCN1CCN(c2ccc(F)cc2)CC1)Nc1ccc([N+](=O)[O-])cc1,74.7 µM
4,C/C(=N\NC(=O)c1ccc(CN2CCc3ccccc3C2)cc1)c1ccccc1O,51.8 µM
5,COc1c(N2CCN(C(=S)Nc3ccc(F)cc3)C(C)C2)c(F)cc2c(=O)c(C(=O)O)cn(C3CC3)c12 (stereo unspecified),18.3 µM
6,COc1cc(/C=C2/C(=O)NN(c3ccc(C)c(Cl)c3)C2=O)cc([N+](=O)[O-])c1O,74.6 µM
7,O=C(C[n+]1cc(Br)cc2ccccc21)c1ccc(F)cc1,75.7 µM
8,Cc1ccc(NC(=O)COc2ccccc2CNC(C)(C)CC(C)(C)C)cc1,82.5 µM
9,COc1c2ccccc2nc2ccccc12,40.4 µM
10,CCN(CC(O)COc1ccc(OCC(O)CN(CC)C2CCCCC2)cc1)C1CCCCC1 (stereo unspecified),52.4 µM
11,O=c1[nH]cc(F)c(=O)[nH]1,2.53 µM
12,Nc1nc(F)nc2c1ncn2[C@@H]1O[C@H](CO)[C@@H](O)[C@H]1O,24.1 µM
13,O=C(N=Nc1c(O)[nH]c2ccccc12)c1cc(-c2cccs2)[nH]n1,81.4 µM
14,CCCOc1ccc(C2=CSC3=NCCN23)cc1Cl,75.1 µM
15,COc1cccc(Nc2nc(NCC3CCCO3)c3ccccc3n2)c1 (stereo unspecified),31.1 µM
16,Nc1ncncc1-c1ccc([N+](=O)[O-])cc1,43.9 µM
17,Cc1cc(OCCCCCNCCO)cc(C)c1Cl,107 µM
18,CC1CC(=O)c2c(cc3c(-c4c(O)cc(O)c5c(O)c6c(cc45)OC(C)CC6=O)c(O)cc(O)c3c2O)O1 (stereo unspecified),28.6 µM
19,CC1CC(C)CN(CCOc2ccc(Cl)cc2Cl)C1 (stereo unspecified),88.2 µM
